Measurements taken from US5962415A, “Compositions comprising a peptide inhibitor of nuclear protein translocation and an immunosuppressant and methods of use thereof” (Bristol-Myers Squibb Co., priority 1998, dated 1999).

Assays:
[1] = test system: CD14; assay: LPS binding to CD14 (plate assay with soluble CD14 Ig); conditions: E. coli AO16 LPS, 2 hours at 4° C., FIG. 14
Description: 96-well plates were coated with goat-anti human Ig, soluble CD-1 4 Ig was added, and the plates were incubated overnight at 4° C. The BMS polypeptide, the C-MYCMEM polypeptide, an SV40 NLS polypeptide containing a single SV40 large T-antigen NLS, a c-myc NLS without a translocation sequence (AKRVKL (SEQ ID NO:6)), a control non-NLS polypeptide, 377G, or PBS, were added to the plates and the plates were incubated for 5 min. E. coli AO16 LPS was then added to the plates and the plates were incubated for 2 hours at 4° C. The plates were washed and LPS was detected using 0.5 μg/ml mouse anti-E. coli LPS, followed by goat anti-mouse horseradish peroxidase.

[2] = test system: Splenic T-cells from BALB/c mice; assay: Mouse splenic T-cell proliferation ([3H]-thymidine); type: cell-based; conditions: 0.5 or 2.0 μM, FIG. 16
Description: Splenic T-cells from BALB/c mice were isolated by glass wool chromatography and treated with either 0.5 or 2.0 μM peptide in 96 well plates for 2 hours followed by activation with either anti-CD3 alone ([…]), PMA alone (1 ng/ml), anti-CD3 plus anti-CD28 ([…] each) or anti-CD28 plus PMA ([…] and 1 ng/ml, respectively). Plates were coated with antibody 24 hours prior to activation. Proliferation was determined after 72 hours by pulsing for 8 hours with [^3 H]-thymidine, and determining radioactivity incorporated into DNA.

[3] = test system: BALB/c mice immunized with KLH; assay: Anti-hemocyanin (KLH) response in mice; type: in vivo; conditions: 5 mg/kg day 0 plus 5 doses every other day, serum day 14, FIG. 12
Description: Female BALB/c mice (8 weeks of age) were immunized by intraperitoneal injection of 25 μg keyhole limpet (Megathura crenulata) hemocyanin ("KLH") (Pacific Bio-Marine Laboratories, Venice, Calif.) without adjuvant on day 0. Mice were divided into groups of five and inhibitory peptides C-MYCMEM and BMS-205820 ([…] (SEQ ID NO:24)), which is identical to the SV40MEM polypeptide with the exception that the polypeptide lacks the C-terminal cysteine, were administered on day 0 at 5 mg/kg, followed by 5 subsequent doses of the same concentration every other day. Control mice were treated with a single 200-μg dose of Chimeric L6 antibody ("Chi L6"). After 14 days, the mice were bled from the orbital sinus and the level of anti-KLH antibodies were measured in the serum by ELISA as described in Example 11.

[4] = test system: 70Z/3 murine leukemia pre-B cells; assay: LPS-stimulated surface antigen expression (κ Ig light chain, IL-2 receptor, CD45) in 70Z/3 cells; type: cell-based; conditions: dose-response data, FIG. 1B
Description: Expression of κ Ig, CD45, CD40, and the interleukin-2 receptor was assayed using standard enzyme-linked immunosorbent assays ("ELISAs") (see, Coligan et al. (eds.) (1991) Current Protocols in Immunology, Wiley & Sons, p. 2.10 or by FACS staining to measure cell-surface markers as described in Raff (1970) Immunology 19:637). Antibodies form cell surface markers were obtained from Pharmingen Co.
The effect of the SV40MEM polypeptide was compared with two additional polypeptides, […] (SEQ ID NO:2) (the "HIV-1MEM" polypeptide), which is composed of the membrane translocation domain of FGF flanked by the NLS from the HIV-1 matrix protein and […] (SEQ ID NO:3) (the "C-MYCMEM" polypeptide), which contains the NLS from the human c-myc oncoprotein (Chelsky et al. (1989), supra, and Dang et al. (1988), supra) using murine 70Z/3 pre-B cells.
Murine 70Z/3 cells (ATCC TlD-158) are a model cell line for analyzing the effects of compounds on B-cell differentiation. In response to S. typhosa LPS (Difco) or γ-interferon, these cells differentiate from surface κ immunoglobulin negative to κ Ig positive.
[…] of: (1) a peptide containing only the FGF signal sequence AAVALLPAVLLALLAP (SEQ ID NO:4) (the "MEM" peptide); (2) a polypeptide having the FGF signal sequence and the NLS of NF-κB p50 on the carboxy terminus of the signal sequence, namely, the NF-κBMEM polypeptide; (3) the SV40MEM polypeptide comprised of L-amino acids; or (4) the SV40MEM polypeptide comprised of D-amino acids. The cells were then incubated with LPS as described in Example 2 and assayed for expression of κ light chain expression.

AKRVKLAAVALLPAVLLALLAKRVKLC [C-MYCMEM, contains the NLS from the human c-myc oncoprotein]
binding of LPS to CD14 [1]: block it from binding CD14
T cell proliferation ([2]; stimulated with PMA + anti-CD28, 2 hours pretreatment): inhibited
T cell proliferation ([2]; stimulated with anti-CD3 + anti-CD28, 2 hours pretreatment): augmentation of proliferation
specific anti-KLH response [3]: inhibited
efficacy at inhibiting κ Ig light chain production (comparison of three polypeptides) [4]: approximately equally efficacious
potency at inhibiting κ Ig light chain production compared with SV40MEM [4]: not as potent
